Measured values reported in patent publication US11154522B2, “Compositions and methods for treating acne vulgaris” (priority 2016, dated 2021).
Read-outs that look alike come from different tables or passages of the source.

Test: Delivery of succinic acid to epidermis and dermis in presence of salicylic acid, Franz diffusion cells, different skin sample (Example 2)
Protocol: Skin from a single donor was stored frozen at −20° C. until needed. The skin was removed from the freezer, allowed to equilibrate to room temperature, and then cut to ˜2 cm×2 cm pieces before testing. FDCs with a 3.3 ml receiver volume and 0.55 cm^2 diffusional area were used. De-aerated isotonic phosphate buffered saline solution at pH 7.4 (PBS) containing 0.01% NaN3 was used as a solvent system for the receptor well medium (“Receptor Fluid”). Receptor wells were filled with the Receptor Fluid. The upper flange of the FDC receptor well was coated with vacuum grease to ensure a complete seal. Pieces of skin were mounted on the receptor cells, the conventional donor wells applied, and the assembly clamped together with uniform pressure using a pinch clamp. After assembly of the FDC, the skin was allowed to hydrate for 20 minutes in contact with the receptor fluid. Any FDCs that evidenced any leakage during this period were discarded. The integrity and quality of the skin was tested prior to application of the test formulations through measurement of the transdermal flux of tritiated water. Skin pieces evidencing an excessively high tritiated water flux were discarded and the tritiated water fluxes of accepted skin pieces was used to guide the distribution of formulation samples over the skin piece set. After removal of the tritiated water samples from the donor wells, the clamp and donor wells were removed. The skin was tapped dry with a KimWipe® and the receptor well solutions was replenished with fresh receptor well medium. Six replicates of each of the formulations were examined, in a batch of 36 FDC's; each test formulation was applied at a quasi-infinite dose of 20 μL cm^2 on skin maintained at 32° C. throughout the experiment. The Receptor Fluid was stirred with a magnetic stir bar throughout. A sample was abstracted from each receptor well at each of 4, 8 and 20 h, the receptor well being replenished with fresh Receptor Fluid. The concentration of succinic acid in each receptor well sample was assayed by a verified LC-MS analytical method. At the end of the experiment (20 h), residual formulation was removed from the skin exterior with a pipette. The FDCs were then be disassembled and the skin washed twice with EtOH-Water 50-50 and wiped dry with a KimWipe®. The successive topmost layers of the stratum corneum were removed by three (3) times applying cellophane tape to the skin and then pulling off the tape. Tape strippings were discarded, the material present in those peripheral layers being considered absorbed only superficially. The epidermal and dermal layers were separated, using mild heating if required. The epidermal and dermal sections were placed into 4 ml glass vials. DMSO was used as an extraction solvent (“Extraction Solvent”) for succinic acid from epidermal and dermal tissue. Two ml of the Extraction Solvent was added to each vial and the vials allowed to incubate for 24 h. At the end of the extraction period, aliquots of the Extraction Solvent were drawn, filtered and analyzed by LC-MS.
A topical formulation was prepared that contained 2% succinic acid, 1% salicylic acid (acne API), 15% ethanol, 15% propylene glycol, 3% Brij 30 and 15% of dimethyl isosorbide. The delivery of succinic to epidermis and dermis was tested as described in Example 1 in an independent experiment, using a different skin sample.

CCOCCOCCO [Transcutol P]
enhancement of delivery of succinic acid by other penetration enhancing molecules: did not result in enhanced delivery of succinic acid

O=C(O)CCC(=O)O [succinic acid]
succinic acid dose delivered to epidermis and dermis (human, 22 h, 2 %, pH 7.4): 33.22%
fold lower amount delivered in absence vs presence of Brij30 and dimethyl isosorbide (human, 22 h, pH 7.4): 4.4 fold
succinic acid dose delivered to epidermis and dermis (human, 22 h, pH 7.4): 7.51%

Capric tryiglyceride GTCC
enhancement of delivery of succinic acid by other penetration enhancing molecules: did not result in enhanced delivery of succinic acid

Polysorbate 20
enhancement of delivery of succinic acid by other penetration enhancing molecules (present in the formulation instead of Brij30 and dimethyl isosorbide): did not result in enhanced delivery of succinic acid

Polysorbate 80
enhancement of delivery of succinic acid by other penetration enhancing molecules: did not result in enhanced delivery of succinic acid
